Reference: PubChem BioAssay AID1963980 (Molecular Pharmacology Branch, DTP, NCI, 2024)
pIC50: −log10 of the molar value.

System: 475296-252-R-J1-PDC spheroid viability
Test: Anticancer human tumor 475296-252-R-J1-PDC patient-derived rectal carcinoma cell line growth inhibition [PI3K]
Details: spheroids with HUVEC and MSC; for pIC50: curve of first compound; for viability, T/C: stronger effect = lower value
Text: Combinatorial screen of targeted agents with the PI3K inhibitors inavolisib, alpelisib, duvelisib, and copanlisib in multi-cell type tumor spheroids
A high-throughput screen of multi-cell type tumor spheroids was designed to identify active combinations of targeted small molecules and PI3K pathway inhibitors. Complex spheroids include a stromal component modeled by human endothelial cells (HUVEC) and fibroblasts modeled by human mesenchymal stem cells (MSCs). The concentration ranges selected for each drug and investigational agent were based upon clinically achievable concentrations if the clinical Cmax of the agent was known.
Compounds. The drugs and investigational agents: inavolisib (NSC800729), alpelisib (NSC765974), duvelisib (NSC772469), copanlisib (NSC816437), ipatasertib (NSC767898), afuresertib (NSC778305), talazoparib (NSC767125), sapanisertib (NSC764658), selumetinib (NSC741078), tovorafenib (DAY101, NSC766906), vemurafenib (NSC761431), ravoxertinib (NSC781343), sotorasib (NSC818433), MRTX1133 (NSC 836407), abemaciclib (NSC 768073), palbociclib (NSC758247), venetoclax (NSC 766270), SY5609 (NSC837396), enzalutamide (NSC755605), and darolutamide (NSC825331), were obtained from the National Cancer Institute (NCI) Developmental Therapeutics Program Chemical Repository. The FDA-approved anticancer drug set is available from the NCI Developmental Therapeutics Program. […] The stock solutions were prepared in dimethyl sulfoxide (DMSO, Sigma-Aldrich, St. Louis, MO, cat. D2650) at 800-fold the tested concentration and stored at -70 degrees C prior to their use. All drugs and investigational agents were tested over a range starting from a high concentration at or near the clinical Cmax and decreasing in half-log increments. If the clinical Cmax for an agent had not been determined, the highest concentration tested was 10 microM.
Cell Culture. All cells were maintained in an incubator at 37 degrees C and 5% CO2 with 95% humidity. The PDC lines were cultured according to standard operating procedures established by the NCI PDMR (https://pdmr.cancer.gov/sops/default.htm). All PDCs were thawed and cultured in Matrigel-coated flasks prepared with a working solution of 1X Ham's F-12 nutrient mix, without supplementation (Invitrogen, Waltham, MA, cat. 11765054), 100 U/mL penicillin-streptomycin (Invitrogen, cat. 15140122), and 2.5% Matrigel (Corning Inc., Corning, NY, cat. 354248) for the first three passages. The 354836-022-R-J1-PDC, 475296-252-R-J1-PDC, and 997726-040-R-J2-PDC lines were cultured in 6A media, which includes advanced DMEM/F-12 (Thermo Fisher Scientific, cat. 12634028), 10 mM HEPES (Thermo Fisher Scientific, cat. 15630080), 1X GlutaMAX supplement (Thermo Fisher Scientific, cat. 35050061), 0.1 mg/mL primocin (InvivoGen, San Diego, CA, cat. ant-pm-2), 10% defined fetal bovine serum, heat inactivated (HyClone Laboratories Inc., Logan, UT, cat. SH30070.03HI), 50% L-WRN conditioned media (ATCC, cat. CRL-3276), 1.25 mM N-Acetyl-L-cysteine (Sigma-Aldrich, cat. A9165), 10 mM nicotinamide (Sigma-Aldrich, cat. N0636), 1X B-27 supplement (Thermo Fisher Scientific, cat. 17504044), 1X N-2 supplement (Thermo Fisher Scientific, cat. 17502048), and 10 microM Y-27632 dihydrochloride (Tocris Bioscience, Bristol, United Kingdom, cat. 1254). The 624824-186-R-J2-PDC line was cultured in 6C/Colon 1B media, which includes all 6A media components plus 50 ng/mL human EGF recombinant protein (Thermo Fisher Scientific, cat. PHG0311). […]

[1] = second compound 0.0316 µM, first compound 0.0316 µM
[2] = second compound 0.0316 µM, first compound 0.1 µM
[3] = second compound 0.0316 µM, first compound 0.316 µM
[4] = second compound 0.0316 µM, first compound 1 µM
[5] = second compound 0.0316 µM, first compound 3.16 µM
[6] = second compound 0.0316 µM, first compound 10 µM
[7] = second compound 0.1 µM, first compound 0.0316 µM
[8] = second compound 0.1 µM, first compound 0.1 µM
[9] = second compound 0.1 µM, first compound 0.316 µM
[10] = second compound 0.1 µM, first compound 1 µM
[11] = second compound 0.1 µM, first compound 3.16 µM
[12] = second compound 0.1 µM, first compound 10 µM
[13] = second compound 0.316 µM, first compound 0.0316 µM
[14] = second compound 0.316 µM, first compound 0.1 µM
[15] = second compound 0.316 µM, first compound 0.316 µM
[16] = second compound 0.316 µM, first compound 1 µM
[17] = second compound 0.316 µM, first compound 3.16 µM
[18] = second compound 0.316 µM, first compound 10 µM
[19] = second compound 1 µM, first compound 0.0316 µM
[20] = second compound 1 µM, first compound 0.1 µM
[21] = second compound 1 µM, first compound 0.316 µM
[22] = second compound 1 µM, first compound 1 µM
[23] = second compound 1 µM, first compound 3.16 µM
[24] = second compound 1 µM, first compound 10 µM
[25] = second compound 3.16 µM, first compound 0.0316 µM
[26] = second compound 3.16 µM, first compound 0.1 µM
[27] = second compound 3.16 µM, first compound 0.316 µM
[28] = second compound 3.16 µM, first compound 1 µM
[29] = second compound 3.16 µM, first compound 3.16 µM
[30] = second compound 3.16 µM, first compound 10 µM
[31] = second compound 10 µM, first compound 0.0316 µM
[32] = second compound 10 µM, first compound 0.1 µM
[33] = second compound 10 µM, first compound 0.316 µM
[34] = second compound 10 µM, first compound 1 µM
[35] = second compound 10 µM, first compound 3.16 µM
[36] = second compound 10 µM, first compound 10 µM
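Further: spheroids exposed to agents for seven days before readout.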

CC1(C)CCC(Nc2ncc(C(F)(F)F)c(-c3c[nH]c4c(P(C)(C)=O)c(C#N)ccc34)n2)CN1 (centres undefined) + Cc1nc(NC(=O)N2CCCC2C(N)=O)sc1-c1ccnc(C(C)(C)C(F)(F)F)c1
pIC50 (second compound 0.0316 µM): < 5.00 | pIC50 (second compound 0.1 µM): < 5.00 | pIC50 (second compound 0.316 µM): < 5.00 | pIC50 (second compound 1 µM): < 5.00 | pIC50 (second compound 3.16 µM): < 5.00 | pIC50 (second compound 10 µM): < 5.00 | viability, T/C [1]: 89.6% | viability, T/C [2]: 90.4% | viability, T/C [3]: 119% | viability, T/C [4]: 139% | viability, T/C [5]: 178% | viability, T/C [6]: 82.4% | viability, T/C [7]: 97.2% | viability, T/C [8]: 96.4% | viability, T/C [9]: 106% | viability, T/C [10]: 142% | viability, T/C [11]: 176% | viability, T/C [12]: 91.7% | viability, T/C [13]: 95.2% | viability, T/C [14]: 104% | viability, T/C [15]: 97.3% | viability, T/C [16]: 129% | viability, T/C [17]: 193% | viability, T/C [18]: 83.2% | viability, T/C [19]: 100% | viability, T/C [20]: 111% | viability, T/C [21]: 110% | viability, T/C [22]: 143% | viability, T/C [23]: 165% | viability, T/C [24]: 81.5% | viability, T/C [25]: 99.3% | viability, T/C [26]: 106% | viability, T/C [27]: 109% | viability, T/C [28]: 121% | viability, T/C [29]: 139% | viability, T/C [30]: 72.9% | viability, T/C [31]: 104% | viability, T/C [32]: 97.1% | viability, T/C [33]: 94% | viability, T/C [34]: 107% | viability, T/C [35]: 121% | viability, T/C [36]: 62.9%

C[C@@H](NC(=O)c1ncnc(N)c1Cl)c1ncc(C(=O)Nc2cc(C(F)(F)F)c(Cl)cn2)s1 + Cc1nc(NC(=O)N2CCCC2C(N)=O)sc1-c1ccnc(C(C)(C)C(F)(F)F)c1
pIC50 (second compound 0.0316 µM): < 5.00 | pIC50 (second compound 0.1 µM): < 5.00 | pIC50 (second compound 0.316 µM): < 5.00 | pIC50 (second compound 1 µM): < 5.00 | pIC50 (second compound 3.16 µM): < 5.00 | pIC50 (second compound 10 µM): 5.11 | viability, T/C [1]: 97.3% | viability, T/C [2]: 82.2% | viability, T/C [3]: 98.4% | viability, T/C [4]: 97.1% | viability, T/C [5]: 104% | viability, T/C [6]: 84.1% | viability, T/C [7]: 88.8% | viability, T/C [8]: 85.3% | viability, T/C [9]: 109% | viability, T/C [10]: 91.7% | viability, T/C [11]: 100% | viability, T/C [12]: 95.4% | viability, T/C [13]: 87.7% | viability, T/C [14]: 90.5% | viability, T/C [15]: 97% | viability, T/C [16]: 98.9% | viability, T/C [17]: 95.6% | viability, T/C [18]: 79.9% | viability, T/C [19]: 82.6% | viability, T/C [20]: 93.7% | viability, T/C [21]: 101% | viability, T/C [22]: 101% | viability, T/C [23]: 84.9% | viability, T/C [24]: 63% | viability, T/C [25]: 86.2% | viability, T/C [26]: 79.4% | viability, T/C [27]: 93.4% | viability, T/C [28]: 75.9% | viability, T/C [29]: 79.6% | viability, T/C [30]: 70.5% | viability, T/C [31]: 86.6% | viability, T/C [32]: 77% | viability, T/C [33]: 79.5% | viability, T/C [34]: 69.1% | viability, T/C [35]: 66.8% | viability, T/C [36]: 45%
